Source: patent US20180116993A1, “MODULATORS OF FARNESOID X RECEPTOR AND METHODS FOR THE USE THEREOF” (XIAMEN UNIVERSITY, priority 2015, published 2018)
Marks after values point to notes of the source that are not given here.

What was measured:
[1] = test system: genes related to metabolism in liver of KK-Ay mice; assay: Liver mRNA levels of metabolism genes in KK-Ay mice (RT-PCR); format: in vivo, mouse; settings: 20 mg/kg for 14 days
Procedure: (§1) 8-10 weeks age mice were maintained as example 4, and fed with high-fat diet (Research Diets, D12492). Mice were i.p. injected with compounds once daily for 7, 10, 11 or 14 days as indicated in each table. After the last compounds injection, mice were fasted for 6 hours with free access to water, and then sacrificed. Part of each liver was fixed in 4% paraformaldehyde for H&E staining, and other liver tissues were stored in liquid nitrogen for enzyme activity measurement and gene expression analysis by RT-PCR. The serums were collected to measure metabolic parameters, including serum glucose, insulin, cholesterol, free fatty acid (FFA) and triglyceride levels. Serum glucose was analyzed using glucose oxidase method (Applygen, Beijing, China). The blood glucose in Table 11 was measured with Berenger blood glucose test strips (B/BRAUN, German) from blood by cutting mice tail after the 6th injection and following fast for 16 hours. Serum cholesterol and FFA were analyzed using Cholesterol Assay Kit and FFA Assay Kit (Bioassay Systems, USA; Nanjing Jiancheng Bioengineering Institute, China; FFA ELISA, R&D, USA), respectively. Serum triglyceride was analyzed using Triglyceride Assay Kit (Bioassay Systems, USA; WAKO Chemicals Inc., Japan; Applygen, Beijing, China). Liver triglyceride was analyzed using Tissue triglyceride assay kit (Applygen, Beijing, China). Serum insulin levels were measured by the Ultra Sensitive Mouse Insulin ELISA Kit (Crystal Chem. Inc., USA). RNA was isolated using Tissue RNA kit (Omega Bio-Tek, GA). The first strand cDNA were obtained by TAKARA reverse transcription kit. Real-time quantitative PCR were performed on a CFX96™ Real-Time PCR Detection System (Bio-Rad) using SYBR Premix Ex Taq™ (TAKARA). Relative mRNA expression levels were normalized to actin levels.
Triglyceride accumulation is due to the imbalance between triglyceride synthesis and clearance. One key gene controlling hepatic lipogenesis is SREBP-1c, whose up-regulation has been implicated in occurrence of hepatic steatosis. Liver-specific inhibition of ChREBP improves hepatic steatosis and insulin resistance in ob/ob mice (see e.g., Renaud (2006) Diabetes, 55(8):2159-70.). […] The gene expression pattern in KK-Ay mice liver further explained the underlying molecular mechanism for the reduction of lipid accumulation by the FXR-ligand compounds (Table 9).

KK-Ay mice = assay: Serum metabolic parameters in high-fat diet fed diabetic KK-Ay mice; format: in vivo, mouse; settings: serum, 20 mg/kg for 14 days
Excerpt: KK-Ay mice (KK/Upj-Ay/J) are animal models with moderate obese and diabetes with insulin resistance. KK-Ay mice develop hyperglycemia, hyperinsulinemia, glucose intolerance and obesity as well as fat accumulation in liver by eight weeks of age. Pancreatic islets are hypertrophied and the β-cells are degranulated. db/db mice (BKS.Cg-Dockr+/+ Lepr^db/Jnju) are animal models of type II diabetes. They have the phenotype of insulin resistance. These model mice were used to detect the functions of our compounds on metabolic diseases.
as §1

[2] = vehicle = 1, listed as tschimganine
[3] = vehicle = 1, listed as feroline

SMILES | mRNA levels in liver, CHREBP ([1]; vehicle = 1) | mRNA levels in liver, FDFT1 ([1]; vehicle = 1) | mRNA levels in liver, G6PC ([1]; vehicle = 1) | mRNA levels in liver, GK ([1]; vehicle = 1) | mRNA levels in liver, SREBP1c ([1]; vehicle = 1) | mRNA levels in liver, CHREBP [1, 2] | mRNA levels in liver, SREBP1c [1, 2] | FFA (μM) (KK-Ay mice) | Glucose (mg/dl) (KK-Ay mice) | Triglyceride (mg/dl) (KK-Ay mice) | mRNA levels in liver, CHREBP [1, 3] | mRNA levels in liver, SREBP1c [1, 3] | Cholesterol (mg/dl) (KK-Ay mice)
COc1cc(C(=O)O[C@H]2C[C@H]3CC[C@]2(C)C3(C)C)ccc1O [Tschimganine] | 0.43 ± 0.08^a | 0.77 ± 0.06^a | 0.59 ± 0.08^a | 0.54 ± 0.07^a | 0.38 ± 0.05^a | decreased | decreased | 151 ± 14^a μM | 123 ± 10^b mg/dl | 134 ± 15^a mg/dl |  |  | 
C/C1=C\CCC(C)(O)/C=C/C(C(C)C)C(OC(=O)c2ccc(O)cc2)C1 (stereo not drawn) [Feroline] | 0.4 ± 0.1^b | 0.75 ± 0.1^a | 0.66 ± 0.07^a | 0.74 ± 0.11 | 0.3 ± 0.08^b |  |  | 122 ± 30^b μM | 177 ± 16^a mg/dl | 136 ± 8^a mg/dl | decreased | decreased | 116 ± 10^a mg/dl
